From patent US12577226B2, “Compounds for treating Huntington's disease” (PTC THERAPEUTICS, INC., priority 2019, dated 2026) come the findings set out here.

pIC50: −log10 of the molar value.

The experiment concerns Endogenous Huntingtin Protein (capture with MW1 (expanded polyglutamine) or MAB2166 antibody). Kind of experiment: Endogenous Huntingtin Protein Assay (ELISA-based Meso Scale Discovery electrochemiluminescence assay). In kind it is cell-based. Conditions: MSD electrochemiluminescence platform. As to the method:
Compounds of Formula (I), Formula (II), or Formula (III) were tested using the Meso Scale Discovery (MSD) Assay provided in International Application No. PCT/US2016/066042, filed on Dec. 11, 2016 and claiming priority to U.S. Provisional Application U.S. 62/265,652 filed on Dec. 10, 2015, the entire contents of which are incorporated herein by reference.
The Endogenous Huntingtin Protein assay used in Example 1 was developed using the ELISA-based MSD electrochemiluminescence assay platform.
Meso Scale Discovery (MSD) 96-well or 384-well plates were coated overnight at 4° C. with MW1 (expanded polyglutamine) or MAB2166 monoclonal antibody (for capture) at a concentration of 1 μg/mL in PBS (30 μL per well). Plates were then washed three times with 300 μL wash buffer (0.05% Tween-20 in PBS) and blocked (100 μL blocking buffer; 5% BSA in PBS) for 4-5 hours at room temperature with rotational shaking and then washed three times with wash buffer.
Samples (25 μL) were transferred to the antibody-coated MSD plate and incubated overnight at 4° C. After removal of the lysates, the plate was washed three times with wash buffer, and 25 μL of #5656S (Cell signaling; rabbit monoclonal) secondary antibody (diluted to 0.25 μg/mL in 0.05% Tween-20 in blocking buffer) was added to each well and incubated with shaking for 1 Hour at room temperature. Following incubation with the secondary antibody, the wells were rinsed with wash buffer after which 25 μL of goat anti-rabbit SULFO TAG secondary detection antibody (required aspect of the MSD system) (diluted to 0.25 μg/mL in 0.05% Tween-20 in blocking buffer) was added to each well and incubated with shaking for 1 hour at room temperature. After rinsing three times with wash buffer, 150 μL of read buffer T with surfactant (MSD) were added to each empty well, and the plate was imaged on a SI 6000 imager (MSD) according to manufacturers' instructions provided for 96- or 384-well plates.
On the technique in general: An ELISA detects its analyte on a solid surface through an enzyme-linked reagent.
Compound “5-(2,8-dimethylimidazo[1,2-b]pyridazin-6-yl)-2-(6-{[(3R,4S)-3-fluoro-2,2,6,6-tetramethylpiperidin-4-yl]oxy}pyridazin-3-yl)pyridin-3-ol and 5-(2,8-dimethylimidazo[1,2-b]pyridazin-6-yl)-2-(6-{[(3S,4R)-3-fluoro-2,2,6,6-tetramethylpiperidin-4-yl]oxy}pyridazin-3-yl)pyridin-3-ol [Compound 47]” had a pIC50 of at least 7.00.

The compound “5-(7-fluoro-2-methyl-2H-indazol-5-yl)-2-{6-[(3R,5S)-3,4,5-trimethylpiperazin-1-yl]pyridazin-3-yl}pyridin-3-ol and 5-(7-fluoro-2-methyl-2H-indazol-5-yl)-2-{6-[(3S,5R)-3,4,5-trimethylpiperazin-1-yl]pyridazin-3-yl}pyridin-3-ol [Compound 91]” gave a pIC50 of at least 7.00.

Compound “5-(8-ethyl-2-methylimidazo[1,2-a]pyridin-6-yl)-2-(6-{[(3R,4S)-3-fluoro-2,2,6,6-tetramethylpiperidin-4-yl]oxy}pyridazin-3-yl)pyridin-3-ol and 5-(8-ethyl-2-methylimidazo[1,2-a]pyridin-6-yl)-2-(6-{[(3S,4R)-3-fluoro-2,2,6,6-tetramethylpiperidin-4-yl]oxy}pyridazin-3-yl)pyridin-3-ol [Compound 45]” showed a pIC50 of at least 7.00.

As to “5-(8-ethyl-2-methylimidazo[1,2-b]pyridazin-6-yl)-2-(6-{[(3R,4S)-3-fluoro-2,2,6,6-tetramethylpiperidin-4-yl]oxy}pyridazin-3-yl)pyridin-3-ol and 5-(8-ethyl-2-methylimidazo[1,2-b]pyridazin-6-yl)-2-(6-{[(3S,4R)-3-fluoro-2,2,6,6-tetramethylpiperidin-4-yl]oxy}pyridazin-3-yl)pyridin-3-ol [Compound 60]”, the pIC50 is at least 7.00.

Compound “5-[(2-methylpyrimidin-5-yl)amino]-2-{6-[(3R)-3-(propan-2-yl)piperazin-1-yl]pyridazin-3-yl}pyridin-3-ol and 5-[(2-methylpyrimidin-5-yl)amino]-2-{6-[(3S)-3-(propan-2-yl)piperazin-1-yl]pyridazin-3-yl}pyridin-3-ol [Compound 134]” had a pIC50 of 6.00 to 6.30.

Compound “5-[(5-methylpyrazin-2-yl)amino]-2-{6-[(3R)-3-(propan-2-yl)piperazin-1-yl]pyridazin-3-yl}pyridin-3-ol and 5-[(5-methylpyrazin-2-yl)amino]-2-{6-[(3S)-3-(propan-2-yl)piperazin-1-yl]pyridazin-3-yl}pyridin-3-ol [Compound 133]” had a pIC50 of at least 7.00.

In the case of “5-[(6-methylpyridin-3-yl)amino]-2-{6-[(3R)-3-(propan-2-yl)piperazin-1-yl]pyridazin-3-yl}pyridin-3-ol and 5-[(6-methylpyridin-3-yl)amino]-2-{6-[(3S)-3-(propan-2-yl)piperazin-1-yl]pyridazin-3-yl}pyridin-3-ol [Compound 127]”, the pIC50 is at least 7.00.

As for “6-[6-(6-{[(3R,4S)-3-fluoro-2,2,6,6-tetramethylpiperidin-4-yl]oxy}pyridazin-3-yl)-5-hydroxypyridin-3-yl]-2-methylimidazo[1,2-a]pyridine-8-carbonitrile and 6-[6-(6-{[(3S,4R)-3-fluoro-2,2,6,6-tetramethylpiperidin-4-yl]oxy}pyridazin-3-yl)-5-hydroxypyridin-3-yl]-2-methylimidazo[1,2-a]pyridine-8-carbonitrile [Compound 59]”, the pIC50 is at least 7.00.

In turn, `Cn1cnc(-c2cnc(-c3ccc(O[C@@H]4CC(C)(C)NC(C)(C)[C@@H]4F)nn3)c(O)c2)cc1=O.Cn1cnc(-c2cnc(-c3ccc(O[C@H]4CC(C)(C)NC(C)(C)[C@H]4F)nn3)c(O)c2)cc1=O` (mixture of isomers) [Compound 42, 6-[6-(6-{[(3R,4S)-3-fluoro-2,2,6,6-tetramethylpiperidin-4-yl]oxy}pyridazin-3-yl)-5-hydroxypyridin-3-yl]-3-methylpyrimidin-4(3H)-one and 6-[6-(6-{[(3S,4R)-3-fluoro-2,2,6,6-tetramethylpiperidin-4-yl]oxy}pyridazin-3-yl)-5-hydroxypyridin-3-yl]-3-methylpyrimidin-4(3H)-one] showed a negative-log IC50 (pIC50) of 6.00 to 6.30.

`COc1cc(-c2cnc(-c3ccc(OC4CC(C)(C)NC(C)(C)C4F)nn3)c(O)c2)nn2cc(C)nc12` (mixture of isomers) [Compound 57, 2-(6-{[(3R,4S)-3-fluoro-2,2,6,6-tetramethylpiperidin-4-yl]oxy}pyridazin-3-yl)-5-(8-methoxy-2-methylimidazo[1,2-b]pyridazin-6-yl)pyridin-3-ol and 2-(6-{[(3S,4R)-3-fluoro-2,2,6,6-tetramethylpiperidin-4-yl]oxy}pyridazin-3-yl)-5-(8-methoxy-2-methylimidazo[1,2-b]pyridazin-6-yl)pyridin-3-ol]: the pIC50 is at least 7.00.

`Cn1cc2c(-c3cnc(-c4ccc(O[C@@H]5CC(C)(C)NC(C)(C)[C@@H]5F)nn4)c(O)c3)ccc(F)c2n1.Cn1cc2c(-c3cnc(-c4ccc(O[C@H]5CC(C)(C)NC(C)(C)[C@H]5F)nn4)c(O)c3)ccc(F)c2n1` (mixture of isomers) [Compound 58, 5-(7-fluoro-2-methyl-2H-indazol-4-yl)-2-(6-{[(3R,4S)-3-fluoro-2,2,6,6-tetramethylpiperidin-4-yl]oxy}pyridazin-3-yl)pyridin-3-ol and 5-(7-fluoro-2-methyl-2H-indazol-4-yl)-2-(6-{[(3S,4R)-3-fluoro-2,2,6,6-tetramethylpiperidin-4-yl]oxy}pyridazin-3-yl)pyridin-3-ol]: the pIC50 is 6.00 to 6.30.

As for `Cc1cn2cc(-c3cnc(-c4ccc(O[C@@H]5CC(C)(C)NC(C)(C)[C@@H]5F)nn4)c(O)c3)cc2c(C)n1.Cc1cn2cc(-c3cnc(-c4ccc(O[C@H]5CC(C)(C)NC(C)(C)[C@H]5F)nn4)c(O)c3)cc2c(C)n1` (mixture of isomers) [Compound 67, 5-(1,3-dimethylpyrrolo[1,2-a]pyrazin-7-yl)-2-(6-{[(3R,4S)-3-fluoro-2,2,6,6-tetramethylpiperidin-4-yl]oxy}pyridazin-3-yl)pyridin-3-ol and 5-(1,3-dimethylpyrrolo[1,2-a]pyrazin-7-yl)-2-(6-{[(3S,4R)-3-fluoro-2,2,6,6-tetramethylpiperidin-4-yl]oxy}pyridazin-3-yl)pyridin-3-ol], the pIC50 is at least 7.00.

Regarding `Cc1cn2nc(-c3cnc(-c4ccc(O[C@@H]5CC(C)(C)NC(C)(C)[C@@H]5F)nn4)c(O)c3)cc(C#N)c2n1.Cc1cn2nc(-c3cnc(-c4ccc(O[C@H]5CC(C)(C)NC(C)(C)[C@H]5F)nn4)c(O)c3)cc(C#N)c2n1` (mixture of isomers) [Compound 68, 6-[6-(6-{[(3R,4S)-3-fluoro-2,2,6,6-tetramethylpiperidin-4-yl]oxy}pyridazin-3-yl)-5-hydroxypyridin-3-yl]-2-methylimidazo[1,2-b]pyridazine-8-carbonitrile and 6-[6-(6-{[(3S,4R)-3-fluoro-2,2,6,6-tetramethylpiperidin-4-yl]oxy}pyridazin-3-yl)-5-hydroxypyridin-3-yl]-2-methylimidazo[1,2-b]pyridazine-8-carbonitrile], the negative logarithm of the IC50 (pIC50) is at least 7.00.

`CC1(C)C[C@@H](Oc2ccc(-c3ncc(-c4nc5cnccn5n4)cc3O)nn2)[C@@H](F)C(C)(C)N1.CC1(C)C[C@H](Oc2ccc(-c3ncc(-c4nc5cnccn5n4)cc3O)nn2)[C@H](F)C(C)(C)N1` (mixture of isomers) [Compound 72, 2-(6-{[(3R,4S)-3-fluoro-2,2,6,6-tetramethylpiperidin-4-yl]oxy}pyridazin-3-yl)-5-([1,2,4]triazolo[1,5-a]pyrazin-2-yl)pyridin-3-ol and 2-(6-{[(3S,4R)-3-fluoro-2,2,6,6-tetramethylpiperidin-4-yl]oxy}pyridazin-3-yl)-5-([1,2,4]triazolo[1,5-a]pyrazin-2-yl)pyridin-3-ol] showed a pIC50 of 6.30 to 7.00.

`Cn1ccc(-c2cnc(-c3ccc(O[C@H]4CC(C)(C)NC(C)(C)[C@H]4F)nn3)c(O)c2)n1` (single isomer, unassigned) [Compound 7, 2-(6-{[(3R,4S)-3-fluoro-2,2,6,6-tetramethylpiperidin-4-yl]oxy}pyridazin-3-yl)-5-(1-methyl-1H-pyrazol-3-yl)pyridin-3-ol or 2-(6-{[(3S,4R)-3-fluoro-2,2,6,6-tetramethylpiperidin-4-yl]oxy}pyridazin-3-yl)-5-(1-methyl-1H-pyrazol-3-yl)pyridin-3-ol] showed a pIC50 of 6.30 to 7.00.

On to `CC1(C)C[C@H](Oc2ccc(-c3ncc(-n4ccnc4)cc3O)nn2)[C@H](F)C(C)(C)N1` (single isomer, unassigned) [Compound 9, 2-(6-{[(3R,4S)-3-fluoro-2,2,6,6-tetramethylpiperidin-4-yl]oxy}pyridazin-3-yl)-5-(1H-imidazol-1-yl)pyridin-3-ol or 2-(6-{[(3S,4R)-3-fluoro-2,2,6,6-tetramethylpiperidin-4-yl]oxy}pyridazin-3-yl)-5-(1H-imidazol-1-yl)pyridin-3-ol], for which the pIC50 is 6.30 to 7.00.

As usually defined, the pIC50 is the IC50 on a negative log10 scale, so that one unit is a factor of ten.
